The results in this text go back to ChEMBL document CHEMBL1148695, “Synthesis and biological activity of nociceptin/orphanin FQ analogues substituted in position 7 or 11 with Calpha,alpha-dialkylated amino acids” (Bioorg Med Chem, 2007).

Holding throughout (assay type): functional, tissue-based
The target in one assay is Nociceptin receptor (Mus musculus, UniProt P35377). The assay is described as follows: (§1) Agonist activity at NOP receptor in Swiss mouse vas deferens assessed as effect on electrically stimulated contractions.
Nociceptin receptor, sequence (P35377 whole entry): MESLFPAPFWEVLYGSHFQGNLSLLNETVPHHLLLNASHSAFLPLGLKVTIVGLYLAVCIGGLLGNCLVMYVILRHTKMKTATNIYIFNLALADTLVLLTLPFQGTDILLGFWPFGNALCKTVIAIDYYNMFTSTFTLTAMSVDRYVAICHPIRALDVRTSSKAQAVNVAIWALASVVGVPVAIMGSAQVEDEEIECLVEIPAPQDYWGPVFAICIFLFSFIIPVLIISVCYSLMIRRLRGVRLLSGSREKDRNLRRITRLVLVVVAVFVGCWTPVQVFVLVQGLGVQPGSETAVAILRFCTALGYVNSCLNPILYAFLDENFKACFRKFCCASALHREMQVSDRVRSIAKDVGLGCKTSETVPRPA
For assay [1], the target named is Nociceptin receptor (Mus musculus) (UniProt P35377). Described as §1.
Nociceptin receptor (Mus musculus), sequence (P35377 whole entry): as above
The target is the same in assay [2]. The assay is described as follows: Agonist activity at NOP receptor in Swiss mouse vas deferens by [35S]GTP-gamma-S binding assay.
For assay [3], the target named is Nociceptin receptor (Cavia porcellus) (UniProt P47748). Description: Agonist activity at NOP receptor in Albino guinea pig ileum assessed as effect on electrically stimulated contractions.
Nociceptin receptor (Cavia porcellus), sequence (P47748 whole entry): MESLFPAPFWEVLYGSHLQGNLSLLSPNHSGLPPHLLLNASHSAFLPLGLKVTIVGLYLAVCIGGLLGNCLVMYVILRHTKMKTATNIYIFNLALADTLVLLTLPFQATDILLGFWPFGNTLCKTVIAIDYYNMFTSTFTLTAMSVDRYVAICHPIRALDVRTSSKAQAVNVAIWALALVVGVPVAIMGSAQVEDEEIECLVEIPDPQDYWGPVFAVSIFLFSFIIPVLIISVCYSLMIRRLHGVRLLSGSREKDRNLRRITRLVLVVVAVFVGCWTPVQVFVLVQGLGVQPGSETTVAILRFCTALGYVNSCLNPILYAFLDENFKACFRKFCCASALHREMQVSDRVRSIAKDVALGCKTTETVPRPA

Where “and” joins values, the source holds several entries; their conditions need not be identical. Identical values can stand only once. Calls of active or inactive are those of the source. No cut-off for these calls is given here.

One may read the EC50 as the midpoint of the concentration-response curve. Broadly, the Emax is the greatest response seen or fitted, relative to the assay's reference. Regarding `CC(C)C[C@H](NC(=O)[C@H](CCCCN)NC(=O)[C@H](CCCNC(=N)N)NC(=O)[C@H](C)NC(=O)[C@H](CO)NC(=O)[C@H](CCCCN)NC(=O)[C@H](CCCNC(=N)N)NC(=O)C(C)(C)NC(=O)CNC(=O)[C@@H](NC(=O)[C@H](Cc1ccccc1)NC(=O)CNC(=O)CNC(=O)[C@@H](N)Cc1ccccc1)[C@@H](C)O)C(=O)N[C@@H](C)C(=O)N[C@@H](CC(N)=O)C(=O)N[C@@H](CCC(N)=O)C(N)=O`, the EC50 at Nociceptin receptor was 4.47 nM. For the same compound, in assay [1], the Emax worked out at 96%.

In the case of `CCCC(CCC)(NC(=O)[C@H](CO)NC(=O)[C@H](CCCCN)NC(=O)[C@H](CCCNC(=N)N)NC(=O)[C@H](C)NC(=O)CNC(=O)[C@@H](NC(=O)[C@H](Cc1ccccc1)NC(=O)CNC(=O)CNC(=O)[C@@H](N)Cc1ccccc1)[C@@H](C)O)C(=O)N[C@@H](CCCNC(=N)N)C(=O)N[C@@H](CCCCN)C(=O)N[C@@H](CC(C)C)C(=O)N[C@@H](C)C(=O)N[C@@H](CC(N)=O)C(=O)N[C@@H](CCC(N)=O)C(N)=O`, on Nociceptin receptor, the EC50 is 29.5 nM. The Emax in assay [1] was found to be 86%.

For `CC(C)C[C@H](NC(=O)[C@H](CCCCN)NC(=O)[C@H](CCCNC(=N)N)NC(=O)C1(NC(=O)[C@H](CO)NC(=O)[C@H](CCCCN)NC(=O)[C@H](CCCNC(=N)N)NC(=O)[C@H](C)NC(=O)CNC(=O)[C@@H](NC(=O)[C@H](Cc2ccccc2)NC(=O)CNC(=O)CNC(=O)[C@@H](N)Cc2ccccc2)[C@@H](C)O)CCCCC1)C(=O)N[C@@H](C)C(=O)N[C@@H](CC(N)=O)C(=O)N[C@@H](CCC(N)=O)C(N)=O`, the concentration giving a half-maximal response (EC50) on Nociceptin receptor is 16.2 nM. The Emax in assay [1] worked out at 89%.

Take `CC[C@](C)(NC(=O)CNC(=O)[C@@H](NC(=O)[C@H](Cc1ccccc1)NC(=O)CNC(=O)CNC(=O)[C@@H](N)Cc1ccccc1)[C@@H](C)O)C(=O)N[C@@H](CCCNC(=N)N)C(=O)N[C@@H](CCCCN)C(=O)N[C@@H](CO)C(=O)N[C@@H](C)C(=O)N[C@@H](CCCNC(=N)N)C(=O)N[C@@H](CCCCN)C(=O)N[C@@H](CC(C)C)C(=O)N[C@@H](C)C(=O)N[C@@H](CC(N)=O)C(=O)N[C@@H](CCC(N)=O)C(N)=O`: the Emax in assay [1] is 91% and 88%.

Consider `CC(C)C[C@H](NC(=O)[C@H](CCCCN)NC(=O)[C@H](CCCNC(=N)N)NC(=O)[C@H](C)NC(=O)[C@H](CO)NC(=O)[C@H](CCCCN)NC(=O)[C@H](CCCNC(=N)N)NC(=O)C(C)(NC(=O)CNC(=O)[C@@H](NC(=O)[C@H](Cc1ccccc1)NC(=O)CNC(=O)CNC(=O)[C@@H](N)Cc1ccccc1)[C@H](C)O)C(C)C)C(=O)N[C@@H](C)C(=O)N[C@@H](CC(N)=O)C(=O)N[C@@H](CCC(N)=O)C(N)=O` (stereo partly drawn), for which the Emax in assay [1] is 88% and 95%.

`CCC(CC)(NC(=O)[C@H](CO)NC(=O)[C@H](CCCCN)NC(=O)[C@H](CCCNC(=N)N)NC(=O)[C@H](C)NC(=O)CNC(=O)[C@@H](NC(=O)[C@H](Cc1ccccc1)NC(=O)CNC(=O)CNC(=O)[C@@H](N)Cc1ccccc1)[C@@H](C)O)C(=O)N[C@@H](CCCNC(=N)N)C(=O)N[C@@H](CCCCN)C(=O)N[C@@H](CC(C)C)C(=O)N[C@@H](C)C(=O)N[C@@H](CC(N)=O)C(=O)N[C@@H](CCC(N)=O)C(N)=O`: the EC50 at Nociceptin receptor is 17.8 nM. The Emax in assay [1] was found to be 87%.

Regarding `CC(C)C[C@H](NC(=O)[C@H](CCCCN)NC(=O)[C@H](CCCNC(=N)N)NC(=O)C1(NC(=O)[C@H](CO)NC(=O)[C@H](CCCCN)NC(=O)[C@H](CCCNC(=N)N)NC(=O)[C@H](C)NC(=O)CNC(=O)[C@@H](NC(=O)[C@H](Cc2ccccc2)NC(=O)CNC(=O)CNC(=O)[C@@H](N)Cc2ccccc2)[C@@H](C)O)CC1)C(=O)N[C@@H](C)C(=O)N[C@@H](CC(N)=O)C(=O)N[C@@H](CCC(N)=O)C(N)=O`, on Nociceptin receptor, the 50% effective concentration (EC50) was 16.6 nM. In addition, the Emax in assay [1] is 91%.

Regarding `CCC(C)(NC(=O)[C@H](CO)NC(=O)[C@H](CCCCN)NC(=O)[C@H](CCCNC(=N)N)NC(=O)[C@H](C)NC(=O)CNC(=O)[C@@H](NC(=O)[C@H](Cc1ccccc1)NC(=O)CNC(=O)CNC(=O)[C@@H](N)Cc1ccccc1)[C@@H](C)O)C(=O)N[C@@H](CCCNC(=N)N)C(=O)N[C@@H](CCCCN)C(=O)N[C@@H](CC(C)C)C(=O)N[C@@H](C)C(=O)N[C@@H](CC(N)=O)C(=O)N[C@@H](CCC(N)=O)C(N)=O` (stereo partly drawn), the Emax in assay [1] was found to be 90%.

Regarding `CCC(CC)(NC(=O)CNC(=O)[C@@H](NC(=O)[C@H](Cc1ccccc1)NC(=O)CNC(=O)CNC(=O)[C@@H](N)Cc1ccccc1)[C@@H](C)O)C(=O)N[C@@H](CCCNC(=N)N)C(=O)N[C@@H](CCCCN)C(=O)N[C@@H](CO)C(=O)N[C@@H](C)C(=O)N[C@@H](CCCNC(=N)N)C(=O)N[C@@H](CCCCN)C(=O)N[C@@H](CC(C)C)C(=O)N[C@@H](C)C(=O)N[C@@H](CC(N)=O)C(=O)N[C@@H](CCC(N)=O)C(N)=O`, the EC50 at Nociceptin receptor was 12.3 nM. Besides, in assay [1], the Emax was determined as 89%.

For `CC(C)C[C@H](NC(=O)[C@H](CCCCN)NC(=O)[C@H](CCCNC(=N)N)NC(=O)[C@H](C)NC(=O)[C@H](CO)NC(=O)[C@H](CCCCN)NC(=O)[C@H](CCCNC(=N)N)NC(=O)C1(NC(=O)CNC(=O)[C@@H](NC(=O)[C@H](Cc2ccccc2)NC(=O)CNC(=O)CNC(=O)[C@@H](N)Cc2ccccc2)[C@@H](C)O)CC1)C(=O)N[C@@H](C)C(=O)N[C@@H](CC(N)=O)C(=O)N[C@@H](CCC(N)=O)C(N)=O`, the EC50 on Nociceptin receptor is 83.2 nM. Besides, the maximum response (Emax) in assay [1] worked out at 7.08%.

Consider `C[C@H](NC(=O)[C@H](CO)NC(=O)[C@H](CCCCN)NC(=O)[C@H](CCCNC(=N)N)NC(=O)C(C)(C)NC(=O)CNC(=O)[C@@H](NC(=O)[C@H](Cc1ccccc1)NC(=O)CNC(=O)CNC(=O)[C@@H](N)Cc1ccccc1)[C@@H](C)O)C(=O)N[C@@H](CCCNC(=N)N)C(=O)N[C@@H](CCCCN)C(=O)N[C@@H](CCCNC(=N)N)C(=O)N[C@@H](CCCCN)C(=O)N[C@@H](CC(N)=O)C(=O)N[C@@H](CCC(N)=O)C(N)=O`, for which the result in assay [2] and in assay [3] was inactive.

`CC(C)C[C@H](NC(=O)[C@H](CCCCN)NC(=O)[C@H](CCCNC(=N)N)NC(=O)C1(NC(=O)[C@H](CO)NC(=O)[C@H](CCCCN)NC(=O)[C@H](CCCNC(=N)N)NC(=O)[C@H](C)NC(=O)CNC(=O)[C@@H](NC(=O)[C@H](Cc2ccccc2)NC(=O)CNC(=O)CNC(=O)[C@@H](N)Cc2ccccc2)[C@@H](C)O)CCCC1)C(=O)N[C@@H](C)C(=O)N[C@@H](CC(N)=O)C(=O)N[C@@H](CCC(N)=O)C(N)=O`: the EC50 on Nociceptin receptor is 8.32 nM. For the same compound, the Emax in assay [1] was found to be 89%.

In the case of `CC(C)C[C@H](NC(=O)[C@H](CCCCN)NC(=O)[C@H](CCCNC(=N)N)NC(=O)[C@H](C)NC(=O)[C@H](CO)NC(=O)[C@H](CCCCN)NC(=O)[C@H](CCCNC(=N)N)NC(=O)C1(NC(=O)CNC(=O)[C@@H](NC(=O)[C@H](Cc2ccccc2)NC(=O)CNC(=O)CNC(=O)[C@@H](N)Cc2ccccc2)[C@@H](C)O)CCCCC1)C(=O)N[C@@H](C)C(=O)N[C@@H](CC(N)=O)C(=O)N[C@@H](CCC(N)=O)C(N)=O`, on Nociceptin receptor, the EC50 was 63.1 nM. Besides, the Emax in assay [1] turned out to be 87%.

For the compound `CC(C)C[C@H](NC(=O)[C@H](CCCCN)NC(=O)[C@H](CCCNC(=N)N)NC(=O)[C@H](C)NC(=O)[C@H](CO)NC(=O)[C@H](CCCCN)NC(=O)[C@H](CCCNC(=N)N)NC(=O)C(C)(CC(C)C)NC(=O)CNC(=O)[C@@H](NC(=O)[C@H](Cc1ccccc1)NC(=O)CNC(=O)CNC(=O)[C@@H](N)Cc1ccccc1)[C@H](C)O)C(=O)N[C@@H](C)C(=O)N[C@@H](CC(N)=O)C(=O)N[C@@H](CCC(N)=O)C(N)=O` (stereo partly drawn), the Emax in assay [1] was 84% and 95%.

Regarding `CC(C)C[C@H](NC(=O)[C@H](CCCCN)NC(=O)[C@H](CCCNC(=N)N)NC(=O)C(C)(NC(=O)[C@H](CO)NC(=O)[C@H](CCCCN)NC(=O)[C@H](CCCNC(=N)N)NC(=O)[C@H](C)NC(=O)CNC(=O)[C@@H](NC(=O)[C@H](Cc1ccccc1)NC(=O)CNC(=O)CNC(=O)[C@@H](N)Cc1ccccc1)[C@@H](C)O)C(C)C)C(=O)N[C@@H](C)C(=O)N[C@@H](CC(N)=O)C(=O)N[C@@H](CCC(N)=O)C(N)=O` (stereo partly drawn), the Emax in assay [1] is 93% and 86%.

`CCCC(CCC)(NC(=O)CNC(=O)[C@@H](NC(=O)[C@H](Cc1ccccc1)NC(=O)CNC(=O)CNC(=O)[C@@H](N)Cc1ccccc1)[C@@H](C)O)C(=O)N[C@@H](CCCNC(=N)N)C(=O)N[C@@H](CCCCN)C(=O)N[C@@H](CO)C(=O)N[C@@H](C)C(=O)N[C@@H](CCCNC(=N)N)C(=O)N[C@@H](CCCCN)C(=O)N[C@@H](CC(C)C)C(=O)N[C@@H](C)C(=O)N[C@@H](CC(N)=O)C(=O)N[C@@H](CCC(N)=O)C(N)=O`: at Nociceptin receptor, the concentration giving a half-maximal response (EC50) is 12.6 nM. For the same compound, in assay [1], the Emax is 91%.

As to `CC(C)C[C@H](NC(=O)[C@H](CCCCN)NC(=O)[C@H](CCCNC(=N)N)NC(=O)C(C)(CC(C)C)NC(=O)[C@H](CO)NC(=O)[C@H](CCCCN)NC(=O)[C@H](CCCNC(=N)N)NC(=O)[C@H](C)NC(=O)CNC(=O)[C@@H](NC(=O)[C@H](Cc1ccccc1)NC(=O)CNC(=O)CNC(=O)[C@@H](N)Cc1ccccc1)[C@@H](C)O)C(=O)N[C@@H](C)C(=O)N[C@@H](CC(N)=O)C(=O)N[C@@H](CCC(N)=O)C(N)=O` (stereo partly drawn), the EC50 on Nociceptin receptor is 13.5 nM. Also, in assay [1], the Emax was 91%.

With `CC(C)C[C@H](NC(=O)[C@H](CCCCN)NC(=O)[C@H](CCCNC(=N)N)NC(=O)C(C)(C)NC(=O)[C@H](CO)NC(=O)[C@H](CCCCN)NC(=O)[C@H](CCCNC(=N)N)NC(=O)[C@H](C)NC(=O)CNC(=O)[C@@H](NC(=O)[C@H](Cc1ccccc1)NC(=O)CNC(=O)CNC(=O)[C@@H](N)Cc1ccccc1)[C@@H](C)O)C(=O)N[C@@H](C)C(=O)N[C@@H](CC(N)=O)C(=O)N[C@@H](CCC(N)=O)C(N)=O`, the EC50 at Nociceptin receptor was 8.91 nM. Moreover, the Emax in assay [1] was found to be 91%.

In the case of `CC(C)C[C@H](NC(=O)[C@H](CCCCN)NC(=O)[C@H](CCCNC(=N)N)NC(=O)[C@H](C)NC(=O)[C@H](CO)NC(=O)[C@H](CCCCN)NC(=O)[C@H](CCCNC(=N)N)NC(=O)C1(NC(=O)CNC(=O)[C@@H](NC(=O)[C@H](Cc2ccccc2)NC(=O)CNC(=O)CNC(=O)[C@@H](N)Cc2ccccc2)[C@@H](C)O)CCCC1)C(=O)N[C@@H](C)C(=O)N[C@@H](CC(N)=O)C(=O)N[C@@H](CCC(N)=O)C(N)=O`, on Nociceptin receptor, the EC50 is 25.1 nM. In assay [1], the Emax is 98%.
